Source: publication PMC11953117 (Cancer Chemotherapy and Pharmacology, 2025)
Where two headings read alike, the source gives them in different places.

Assays:
[1] = Exposure–response analysis (logistic regression) of safety endpoints; assay type: in vivo, human
Experimental: The exposure–response analyses were conducted using a subset of patients from the PopPK analysis where capivasertib was used as monotherapy. […] As different schedules were assessed between and within studies, the exposure metrics were derived for the last dose of the last dosing day in the second week of treatment (i.e. on days 14, 11, and 9 for the continuous, [4/3] and [2/5] schedules, respectively), to ensure SS conditions, using the planned dose. […] The relative dose intensity (RDI) was calculated as the percentage of the average weekly dose relative to the PWD to examine the tolerability of capivasertib monotherapy at the given dosing schedules.
Logistic regression models were used to establish associations between the probability of the safety endpoints with the exposure metrics at a statistically significant level of 0.005.

[2] = cited from earlier work
[3] = set-up: method as in PMID 29066505, PMID 26931343; settings: monotherapy, cited from earlier work; for recommended phase 2 dose: based on DLTs
[4] = univariate logistic regression, significance level 0.005

NC1(C(=O)N[C@@H](CCO)c2ccc(Cl)cc2)CCN(c2ncnc3[nH]ccc23)CC1 [capivasertib, 4-amino-N-[(1S)-1-(4-chlorophenyl)-3-hydroxypropyl]-1-(7H-pyrrolo[2,3-d]pyrimidin– 4-yl)piperidine-4-carboxamide]
probability of hyperglycemia AE grade ≥ 3 and increased blood glucose > 13.9 mmol/L ([1]; [2/5] 640 mg compared with [4/3] 480 mg): higher probability | probabilities of hyperglycemia AE grade ≥ 3 and increased blood glucose > 13.9 mmol/L: effect of schedule ([1]; at a given dose): did not depend on the schedule | probability of AEDD, AEDM and diarrhea AE grade ≥ 2: effect of schedule ([1]; at a given dose, intermittent schedules compared with continuous, statistically significant): lower probability of events | probability of hyperglycemia AE grade ≥ 3 and increased blood glucose > 13.9 mmol/L: effect of schedule ([1]; at a given weekly dose, intermittent schedules compared with continuous, statistically significant): higher probability of events | probability of rash AE grade ≥ 2, AEDD, AEDM, AE grade ≥ 3, SAE and diarrhea AE grade ≥ 2 ([1]; continuous 320 mg (4480 mg weekly) compared with [4/3] 480 mg (3840 mg weekly)): higher | relationships between exposure metrics and AE grade ≥ 1 ([1]; logistic regression, significance level 0.005): No significant relationships | exposure metrics with significant relationship to AE grade ≥ 3 [1, 4]: dose, PWD, AUC, AUCPWD, Cmax, and Cmin | exposure metrics with significant relationship to AE leading to dose discontinuation [1, 4]: PWD | exposure metrics with significant relationship to AE leading to dose modification [1, 4]: PWD, AUC, AUCPWD, Cmax, and Cmin | exposure metrics with significant relationship to SAE [1, 4]: dose, PWD, AUC, AUCPWD, Cmax, and Cmin | exposure metrics with significant relationship to diarrhea AE grade ≥ 2 [1, 4]: PWD, AUCPWD | exposure metrics with significant relationship to hyperglycemia AE grade ≥ 3 [1, 4]: dose, AUC, AUCPWD, Cmax, and Cmin | exposure metrics with significant relationship to increased blood glucose > 13.9 mmol/L [1, 4]: dose, AUC, AUCPWD, Cmax, and Cmin | exposure metrics with significant relationship to rash AE grade ≥ 2 [1, 4]: PWD | dose proportionality of plasma exposure ([2]; dose range of 80–480 mg): approximately dose proportional | half-life ([2]; patients): approximately 8 h | recommended phase 2 dose ([3]; [2/5] schedule): 640 mg BID | recommended phase 2 dose ([3]; [4/3] schedule): 480 mg BID | recommended phase 2 dose ([3]; continuous schedule): 320 mg BID | dose-limiting toxicities (DLTs) ([3]; first-in-human study): diarrhea, rash, and hyperglycemia
